Measurements reported in ChEMBL document CHEMBL4190286, “Modulating the Serotonin Receptor Spectrum of Pulicatin Natural Products” (J Nat Prod, 2017).

Tests used:
[1] = target: T1, 5-hydroxytryptamine receptor 2B (Homo sapiens, UniProt P41595); assay: Displacement of [3H]-LSD from human 5-HT2B receptor expressed in HEK cells after 90 mins by microbeta scintillation counting analysis; type: cell-based
[2] = target: T2, 5-hydroxytryptamine receptor 1B (Homo sapiens, UniProt P28222); assay: Displacement of [3H]5-CT from human 5-HT1B receptor expressed in HEK cells after 90 mins by microbeta scintillation counting analysis; type: cell-based
T2 sequence (P28222 whole entry): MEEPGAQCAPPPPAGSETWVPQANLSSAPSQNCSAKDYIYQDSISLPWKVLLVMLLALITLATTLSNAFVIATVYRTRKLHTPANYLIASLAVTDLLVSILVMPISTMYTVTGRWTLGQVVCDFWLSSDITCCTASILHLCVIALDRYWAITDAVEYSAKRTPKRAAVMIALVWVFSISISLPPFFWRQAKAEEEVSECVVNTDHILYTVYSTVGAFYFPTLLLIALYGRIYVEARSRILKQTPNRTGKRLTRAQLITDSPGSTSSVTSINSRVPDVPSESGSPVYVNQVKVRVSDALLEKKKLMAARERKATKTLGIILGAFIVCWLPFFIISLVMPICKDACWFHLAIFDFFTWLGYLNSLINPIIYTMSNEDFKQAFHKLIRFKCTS

[3] = target: T3, 5-hydroxytryptamine receptor 1D (Homo sapiens, UniProt P28221); assay: Displacement of [3H]5-CT from human 5-HT1D receptor expressed in HEKT cells after 90 mins by microbeta scintillation counting analysis; type: cell-based
T3 sequence (P28221 whole entry): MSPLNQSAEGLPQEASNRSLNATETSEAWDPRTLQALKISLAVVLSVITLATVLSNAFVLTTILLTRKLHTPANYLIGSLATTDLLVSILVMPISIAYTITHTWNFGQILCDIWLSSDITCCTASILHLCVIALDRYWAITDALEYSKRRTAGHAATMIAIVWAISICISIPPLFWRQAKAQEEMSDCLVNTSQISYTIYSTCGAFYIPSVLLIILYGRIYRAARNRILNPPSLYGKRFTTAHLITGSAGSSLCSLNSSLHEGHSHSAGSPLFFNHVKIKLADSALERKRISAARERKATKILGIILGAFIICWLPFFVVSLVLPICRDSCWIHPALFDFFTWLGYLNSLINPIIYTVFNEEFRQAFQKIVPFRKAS

[4] = target: T4, 5-hydroxytryptamine receptor 1E (Homo sapiens, UniProt P28566); assay: Displacement of [3H]5-HT from human 5-HT1E receptor expressed in HEK cells after 90 mins by microbeta scintillation counting analysis; type: cell-based
T4 sequence (P28566 whole entry): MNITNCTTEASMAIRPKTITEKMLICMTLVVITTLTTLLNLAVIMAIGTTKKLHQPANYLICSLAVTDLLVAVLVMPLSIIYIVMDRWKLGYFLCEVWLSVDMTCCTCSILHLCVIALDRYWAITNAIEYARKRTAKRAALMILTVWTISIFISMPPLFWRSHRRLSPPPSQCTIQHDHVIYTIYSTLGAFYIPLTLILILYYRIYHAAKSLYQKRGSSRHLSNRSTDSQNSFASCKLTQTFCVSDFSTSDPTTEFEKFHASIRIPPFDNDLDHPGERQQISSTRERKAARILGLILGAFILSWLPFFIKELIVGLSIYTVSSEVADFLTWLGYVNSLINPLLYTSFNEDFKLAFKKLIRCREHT

[5] = target: T5, 5-hydroxytryptamine receptor 2A (Homo sapiens, UniProt P28223); assay: Displacement of [3H]Ketanserin from 5-HT2A (unknown origin) receptor after 90 mins by microbeta scintillation counting analysis
T5 sequence (P28223 whole entry): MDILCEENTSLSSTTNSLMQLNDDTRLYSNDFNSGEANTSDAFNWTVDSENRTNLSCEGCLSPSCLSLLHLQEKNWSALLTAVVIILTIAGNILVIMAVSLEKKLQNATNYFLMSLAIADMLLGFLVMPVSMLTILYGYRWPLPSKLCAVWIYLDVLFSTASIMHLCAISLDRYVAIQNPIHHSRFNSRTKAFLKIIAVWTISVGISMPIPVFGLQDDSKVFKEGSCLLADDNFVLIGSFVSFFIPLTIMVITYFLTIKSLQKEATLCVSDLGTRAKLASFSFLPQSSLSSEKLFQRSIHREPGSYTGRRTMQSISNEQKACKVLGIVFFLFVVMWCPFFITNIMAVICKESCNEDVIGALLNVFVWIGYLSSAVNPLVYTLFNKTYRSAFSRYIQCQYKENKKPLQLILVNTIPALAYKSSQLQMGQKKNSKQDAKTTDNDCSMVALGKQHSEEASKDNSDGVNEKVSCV

[6] = target: T6, 5-hydroxytryptamine receptor 2C (Homo sapiens, UniProt P28335); assay: Displacement of [3H]-Mesulergine from human 5-HT2C receptor expressed in HEKT cells after 90 mins by microbeta scintillation counting analysis; type: cell-based
T6 sequence (P28335 whole entry): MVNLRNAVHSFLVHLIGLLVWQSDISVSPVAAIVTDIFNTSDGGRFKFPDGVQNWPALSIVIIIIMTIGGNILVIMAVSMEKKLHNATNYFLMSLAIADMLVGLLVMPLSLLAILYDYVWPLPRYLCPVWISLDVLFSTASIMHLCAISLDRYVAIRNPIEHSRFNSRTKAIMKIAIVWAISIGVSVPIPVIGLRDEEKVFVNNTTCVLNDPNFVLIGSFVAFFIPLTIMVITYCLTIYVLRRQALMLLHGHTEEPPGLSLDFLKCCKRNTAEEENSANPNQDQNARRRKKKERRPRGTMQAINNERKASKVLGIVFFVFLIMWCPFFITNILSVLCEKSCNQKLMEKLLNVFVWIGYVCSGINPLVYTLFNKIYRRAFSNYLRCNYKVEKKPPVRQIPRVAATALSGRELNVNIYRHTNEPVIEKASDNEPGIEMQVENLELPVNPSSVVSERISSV

[7] = target: T7, 5-hydroxytryptamine receptor 3A (Homo sapiens, UniProt P46098); assay: Displacement of [3H]-GR65630 from human 5-HT3 receptor expressed in HEKT cells after 90 mins by microbeta scintillation counting analysis; type: cell-based
T7 sequence (P46098 whole entry): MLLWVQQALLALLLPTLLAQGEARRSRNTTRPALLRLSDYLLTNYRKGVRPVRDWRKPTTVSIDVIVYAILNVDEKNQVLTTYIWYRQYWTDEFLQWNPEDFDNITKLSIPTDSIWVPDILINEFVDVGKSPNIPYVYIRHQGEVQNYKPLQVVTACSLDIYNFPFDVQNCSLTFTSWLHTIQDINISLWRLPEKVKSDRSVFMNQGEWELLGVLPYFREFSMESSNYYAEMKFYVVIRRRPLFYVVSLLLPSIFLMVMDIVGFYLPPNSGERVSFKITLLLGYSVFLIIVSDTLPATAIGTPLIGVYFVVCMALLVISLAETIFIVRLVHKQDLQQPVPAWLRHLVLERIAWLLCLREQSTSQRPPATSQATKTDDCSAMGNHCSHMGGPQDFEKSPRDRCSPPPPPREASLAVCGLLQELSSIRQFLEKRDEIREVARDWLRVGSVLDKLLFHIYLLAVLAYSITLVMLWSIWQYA

[8] = target: T8, 5-hydroxytryptamine receptor 5A (Homo sapiens, UniProt P47898); assay: Displacement of [3H]-LSD from human 5-HT5A receptor expressed in Flp-In CHO cells after 90 mins by microbeta scintillation counting analysis; type: cell-based
T8 sequence (P47898 whole entry): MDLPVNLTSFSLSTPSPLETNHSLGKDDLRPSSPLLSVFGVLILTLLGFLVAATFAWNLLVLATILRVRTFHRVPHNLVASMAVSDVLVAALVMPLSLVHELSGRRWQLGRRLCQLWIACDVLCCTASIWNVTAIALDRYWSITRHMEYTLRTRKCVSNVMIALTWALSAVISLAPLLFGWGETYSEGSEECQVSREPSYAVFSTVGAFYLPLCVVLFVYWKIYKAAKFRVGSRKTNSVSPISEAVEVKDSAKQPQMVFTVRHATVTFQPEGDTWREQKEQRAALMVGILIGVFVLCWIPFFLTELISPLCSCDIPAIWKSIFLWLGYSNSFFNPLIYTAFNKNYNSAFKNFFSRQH

[9] = target: T9, 5-hydroxytryptamine receptor 6 (Homo sapiens, UniProt P50406); assay: Displacement of [3H]-LSD from human 5-HT6 receptor expressed in HEK cells after 90 mins by microbeta scintillation counting analysis; type: cell-based
T9 sequence (P50406 whole entry): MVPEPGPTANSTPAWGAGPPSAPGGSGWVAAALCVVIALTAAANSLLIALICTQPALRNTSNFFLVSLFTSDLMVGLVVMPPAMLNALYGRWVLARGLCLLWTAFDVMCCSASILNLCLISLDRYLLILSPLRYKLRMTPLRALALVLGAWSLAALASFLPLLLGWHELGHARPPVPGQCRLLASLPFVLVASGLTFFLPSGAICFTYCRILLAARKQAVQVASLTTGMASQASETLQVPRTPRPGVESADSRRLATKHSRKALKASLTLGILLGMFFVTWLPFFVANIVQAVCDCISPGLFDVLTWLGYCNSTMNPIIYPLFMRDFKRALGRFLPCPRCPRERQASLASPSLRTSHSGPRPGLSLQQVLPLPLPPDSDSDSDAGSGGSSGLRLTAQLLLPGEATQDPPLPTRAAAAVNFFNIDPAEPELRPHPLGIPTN

[10] = target: T10, 5-hydroxytryptamine receptor 7 (Homo sapiens, UniProt P34969); assay: Displacement of [3H]-LSD from human 5-HT7A receptor expressed in HEK cells after 90 mins by microbeta scintillation counting analysis; type: cell-based
T10 sequence (P34969 whole entry): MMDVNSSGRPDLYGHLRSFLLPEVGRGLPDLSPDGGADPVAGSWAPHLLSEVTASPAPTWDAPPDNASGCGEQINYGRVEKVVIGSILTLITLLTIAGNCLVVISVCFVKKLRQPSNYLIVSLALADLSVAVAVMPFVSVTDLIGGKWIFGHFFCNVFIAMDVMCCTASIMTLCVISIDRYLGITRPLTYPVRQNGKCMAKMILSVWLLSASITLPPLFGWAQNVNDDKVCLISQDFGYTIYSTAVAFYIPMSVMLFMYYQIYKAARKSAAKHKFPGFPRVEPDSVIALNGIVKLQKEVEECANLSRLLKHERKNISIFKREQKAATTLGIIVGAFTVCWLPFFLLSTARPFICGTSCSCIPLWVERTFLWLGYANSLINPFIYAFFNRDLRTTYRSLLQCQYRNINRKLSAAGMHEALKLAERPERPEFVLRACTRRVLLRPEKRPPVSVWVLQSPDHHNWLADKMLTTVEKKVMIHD

[11] = target: T2, 5-hydroxytryptamine receptor 1B; assay: Displacement of [3H]-LSD from human 5-HT1B receptor expressed in baculovirus infected Sf9 cells
[12] = target: T1, 5-hydroxytryptamine receptor 2B; assay: Displacement of [3H]-LSD from human 5-HT2B receptor expressed in baculovirus infected Sf9 cells
[13] = target: T3, 5-hydroxytryptamine receptor 1D; assay: Binding affinity to 5-HT1D receptor (unknown origin) by radioligand binding assay
[14] = target: T4, 5-hydroxytryptamine receptor 1E; assay: Binding affinity to 5-HT1E receptor (unknown origin) by radioligand binding assay
[15] = target: T5, 5-hydroxytryptamine receptor 2A; assay: Binding affinity to 5-HT2A receptor (unknown origin) by radioligand binding assay
[16] = target: T6, 5-hydroxytryptamine receptor 2C; assay: Binding affinity to 5-HT2C receptor (unknown origin) by radioligand binding assay
[17] = target: T7, 5-hydroxytryptamine receptor 3A; assay: Binding affinity to 5-HT3 receptor (unknown origin) by radioligand binding assay
[18] = target: T8, 5-hydroxytryptamine receptor 5A; assay: Binding affinity to 5-HT5A receptor (unknown origin) by radioligand binding assay
[19] = target: T9, 5-hydroxytryptamine receptor 6; assay: Binding affinity to 5-HT6 receptor (unknown origin) by radioligand binding assay
[20] = target: T10, 5-hydroxytryptamine receptor 7; assay: Binding affinity to 5-HT7A receptor (unknown origin) by radioligand binding assay
[21] = target: T1, 5-hydroxytryptamine receptor 2B; assay: Antagonist activity at 5-HT2B receptor (unknown origin) by calcium release assay; type: functional
[22] = target: T11, 5-hydroxytryptamine receptor 1A (Homo sapiens, UniProt P08908); assay: Antagonist activity at 5-HT1A receptor (unknown origin) by Tango assay; type: functional
T11 sequence (P08908 whole entry): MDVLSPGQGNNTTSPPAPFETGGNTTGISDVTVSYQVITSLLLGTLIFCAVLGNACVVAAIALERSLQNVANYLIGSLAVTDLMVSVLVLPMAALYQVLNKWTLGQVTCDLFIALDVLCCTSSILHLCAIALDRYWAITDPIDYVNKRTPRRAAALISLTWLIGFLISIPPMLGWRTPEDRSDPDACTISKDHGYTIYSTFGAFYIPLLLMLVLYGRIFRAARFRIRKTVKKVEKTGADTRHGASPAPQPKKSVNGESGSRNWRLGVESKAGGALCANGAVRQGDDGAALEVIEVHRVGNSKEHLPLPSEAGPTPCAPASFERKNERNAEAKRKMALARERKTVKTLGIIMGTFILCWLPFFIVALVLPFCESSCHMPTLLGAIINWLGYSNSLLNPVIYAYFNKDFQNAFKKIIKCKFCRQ

[23] = target: T10, 5-hydroxytryptamine receptor 7; assay: Antagonist activity at 5-HT7A receptor (unknown origin) by Tango assay

T1 sequence (P41595 whole entry): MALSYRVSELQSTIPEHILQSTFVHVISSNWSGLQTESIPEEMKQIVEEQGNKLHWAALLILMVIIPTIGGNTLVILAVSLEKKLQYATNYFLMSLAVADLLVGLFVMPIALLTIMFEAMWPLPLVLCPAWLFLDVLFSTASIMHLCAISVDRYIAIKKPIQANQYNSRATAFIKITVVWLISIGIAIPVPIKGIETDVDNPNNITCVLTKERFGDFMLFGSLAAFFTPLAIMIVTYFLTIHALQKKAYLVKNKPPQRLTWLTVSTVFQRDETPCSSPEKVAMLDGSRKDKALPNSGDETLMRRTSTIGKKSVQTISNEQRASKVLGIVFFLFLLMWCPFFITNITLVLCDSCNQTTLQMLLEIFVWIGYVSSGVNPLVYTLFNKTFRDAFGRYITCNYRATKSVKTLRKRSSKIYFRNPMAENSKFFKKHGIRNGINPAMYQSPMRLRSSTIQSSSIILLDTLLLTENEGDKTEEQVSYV

| SMILES | Ki [1] [µM] | Ki [2] [µM] | Ki [3] [µM] | Ki [4] [µM] | Ki [5] [µM] | Ki [6] [µM] | Ki [7] [µM] | Ki [8] [µM] | Ki [9] [µM] | Ki [10] [µM] | also measured |
| --- | --- | --- | --- | --- | --- | --- | --- | --- | --- | --- | --- |
| CNc1ccccc1C1=N[C@@H](CO)[C@H](C)S1 (relative stereo) | 1.2 | > 10 | 8.5 | > 10 | > 10 | 1.9 | 3.6 | > 10 | > 10 | > 10 |  |
| C[C@H]1SC(c2ccc(-c3ccccc3)cc2)=N[C@H]1Cc1c[nH]cn1 (relative stereo) | 1.4 |  |  |  | 0.31 | 2.3 |  |  |  |  |  |
| Oc1ccccc1C1=NC(Cc2c[nH]cn2)CS1 (racemic) | 0.1 | > 10 | 1.9 | > 10 | > 10 | > 10 | 0.95 | > 10 | > 10 | 7.4 |  |
| C[C@@H]1SC(c2ccccc2O)=N[C@H]1[C@@H]1SC[C@](C)(C(=O)O)N1C [WATASEMYCINS A] |  |  |  |  |  |  |  |  |  |  | Ki [11]: > 10 µM; Ki [12]: 4.7 µM; Ki [13]: > 10 µM; Ki [14]: > 10 µM; Ki [15]: > 10 µM; Ki [16]: > 10 µM; Ki [17]: > 10 µM; Ki [18]: > 10 µM; Ki [19]: > 10 µM; Ki [20]: > 10 µM |
| C[C@@H]1SC(c2cc3ccccc3cc2O)=N[C@H]1CO (relative stereo) | 0.81 | > 10 | > 10 | > 10 | > 10 | 2.4 | 1.8 | > 10 | > 10 | > 10 |  |
| C[C@H]1SC(c2ccccc2O)=N[C@@H]1CO (racemic) | 0.62 |  |  |  |  | 2.2 |  |  |  |  |  |
| C[C@@H]1SC(c2ccccc2O)=N[C@H]1[C@H]1SC[C@](C)(C(=O)O)N1C [WATASEMYCINS B] |  |  |  |  |  |  |  |  |  |  | Ki [11]: > 10 µM; Ki [12]: 3.9 µM; Ki [13]: > 10 µM; Ki [14]: > 10 µM; Ki [15]: > 10 µM; Ki [16]: > 10 µM; Ki [17]: > 10 µM; Ki [18]: > 10 µM; Ki [19]: > 10 µM; Ki [20]: > 10 µM |
| C[C@@H]1SC(c2ccsc2)=N[C@H]1CO (relative stereo) | 1.5 | > 10 | 8.6 | > 10 | > 10 | > 10 | 6.7 | 8.2 | > 10 | > 10 |  |
| C[C@H]1SC(c2ccccc2O)=N[C@H]1CO | 0.4 |  |  |  |  |  |  |  |  |  |  |
| OC[C@@H]1CSC(c2ccccc2O)=N1 [AERUGINE] |  |  |  |  |  |  |  |  |  |  | Ki [11]: > 10 µM; Ki [13]: > 10 µM; Ki [14]: > 10 µM; Ki [15]: > 10 µM; Ki [16]: > 10 µM; Ki [17]: > 10 µM; Ki [18]: > 10 µM; Ki [19]: > 10 µM; Ki [20]: > 10 µM |
| NC(=O)c1csc(-c2ccccc2O)n1 [PULICATINS F] |  |  |  |  |  |  |  |  |  |  | Ki [11]: > 10 µM; Ki [13]: > 10 µM; Ki [14]: > 10 µM; Ki [15]: > 10 µM; Ki [16]: > 10 µM; Ki [17]: > 10 µM; Ki [18]: > 10 µM; Ki [19]: > 10 µM; Ki [20]: > 10 µM |
| C[C@@H]1SC(c2c[nH]c3ccccc23)=N[C@H]1CO (relative stereo) | 2.4 | > 10 | 2.7 | > 10 | > 10 | 5.4 | 2.8 | > 10 | > 10 | > 10 |  |
| C[C@@H]1SC(c2ccccc2)=N[C@H]1CO (relative stereo) | 3 | > 10 | 5.3 | > 10 | > 10 | 35 | 6.7 | > 10 | > 10 | > 10 |  |
| COC(=O)[C@H](Cc1cnc[nH]1)NC(=O)[C@@H]1N=C(c2ccccc2O)S[C@@H]1C | 1.4 |  | 0.53 | 4.6 |  | 0.88 | 3.1 | > 10 | > 10 | > 10 | IC50 [21]: > 10 µM; IC50 [22]: > 10 µM |
| Oc1ccccc1C1=N[C@@H]2CCC[C@@H]2S1 (racemic) | > 10 | > 10 | > 10 | > 10 | > 10 | > 10 | > 10 | > 10 | > 10 | > 10 |  |
| C[C@@H]1SC(c2cccs2)=N[C@H]1CO (relative stereo) | 1.4 | > 10 | > 10 | > 10 | > 10 | 2.2 | > 10 | > 10 | > 10 | > 10 |  |
| C[C@@H]1SC(c2ccccc2)=N[C@@H]1Cc1c[nH]cn1 (relative stereo) | 0.69 |  | 1.6 | 4 |  | 0.75 | 0.077 | 6.8 | > 10 | 3.3 | IC50 [21]: > 10 µM; IC50 [23]: > 10 µM; IC50 [22]: > 10 µM |
| O=Cc1csc(-c2ccccc2O)n1 |  |  |  |  |  |  |  |  |  |  | Ki [11]: > 10 µM; Ki [12]: 1.5 µM; Ki [13]: > 10 µM; Ki [14]: > 10 µM; Ki [15]: > 10 µM; Ki [16]: > 10 µM; Ki [17]: > 10 µM; Ki [18]: > 10 µM; Ki [19]: > 10 µM; Ki [20]: > 10 µM |
| CCCCCCCCOc1ccc(C2=N[C@@H](CO)[C@H](C)S2)cc1 (relative stereo) | > 10 | > 10 | > 10 | > 10 | 6.9 | 3.6 | > 10 | > 10 | > 10 | > 10 | IC50 [22]: > 10 µM |
| C[C@@H]1SC(c2ccco2)=N[C@H]1CO (relative stereo) | > 10 | > 10 | > 10 | > 10 | > 10 | > 10 | > 10 | > 10 | > 10 | > 10 |  |
| C[C@@H]1SC(c2ccc(-c3ccccc3)cc2)=N[C@H]1Cc1c[nH]cn1 (relative stereo) | 1.1 |  |  |  | 0.24 | 1.4 |  |  |  |  |  |
| NC(=O)C1CSC(c2ccccc2O)=N1 (racemic) [PULICATINS G] |  |  |  |  |  |  |  |  |  |  | Ki [11]: > 10 µM; Ki [13]: > 10 µM; Ki [14]: > 10 µM; Ki [15]: > 10 µM; Ki [16]: > 10 µM; Ki [17]: > 10 µM; Ki [18]: > 10 µM; Ki [19]: > 10 µM; Ki [20]: > 10 µM |
